These are literature values, as cited in patent publication US11027027B2, “Pyridazinoindole compounds and methods for PET imaging” (Vanderbilt University, priority 2015, dated 2021).

This data set addresses central benzodiazepine receptor (CBR). The note with it: value used to calculate Ki; read-out: Kd for flunitrazepam; cited from earlier work.

For orientation: Kd means the equilibrium constant for the complex coming apart. In the case of `CN1C(=O)CN=C(c2ccccc2F)c2cc([N+](=O)[O-])ccc21` [flunitrazepam], the Kd is 1.1 nM.
